Laboratory results from the NIST ThermoML archive (doi:10.1021/je300630u).

Legend:
[1] = refractive index (other wavelength) (dimensionless); details: 101 kPa, Liquid, Wavelength=632.8 nm, Standard Abbe refractometry
[2] = refractive index (other wavelength) (dimensionless); xn = mol fraction of the nth substance listed; details: 295.84 K, 101.3 kPa, Liquid, Wavelength=632.8 nm, Standard Abbe refractometry

N#Cc1ccccc1 [benzonitrile]
[1]
Details	refractive index
293.37 K	1.5252
293.99 K	1.5249
294.53 K	1.5247
295.09 K	1.5243
295.66 K	1.5241
295.84 K	1.5239
296.11 K	1.5238
296.8 K	1.5236
297.15 K	1.5233
297.91 K	1.523
298.2 K	1.5228
298.8 K	1.5225
298.83 K	1.5226
299.26 K	1.5223
300.06 K	1.5219
300.12 K	1.5219
300.31 K	1.5218
301.13 K	1.5214
301.23 K	1.5214
301.35 K	1.5213
302.26 K	1.5209
302.31 K	1.5209
302.42 K	1.5208
303.41 K	1.5203
304.49 K	1.5198
305.64 K	1.5192
306.89 K	1.5186
307.88 K	1.5181

CCCCCCCCCCCCC [tridecane]
[1]
Details	refractive index
293.2 K	1.4244
294.26 K	1.4239
295.29 K	1.4234
295.84 K	1.4231
296.33 K	1.423
297.35 K	1.4225
298.37 K	1.4221
299.42 K	1.4216
300.39 K	1.4212
301.47 K	1.4207

N#Cc1ccccc1 [benzonitrile] + CCCCCCCCCCCCC
[2]
Details	refractive index
x1 = 0.1148	1.428
x1 = 0.2007	1.4323
x1 = 0.3192	1.439
x1 = 0.3935	1.4443
x1 = 0.5	1.4525
x1 = 0.6113	1.4629
x1 = 0.7078	1.4738
x1 = 0.8007	1.4865
x1 = 0.9009	1.5032
x1 = 1	1.5239

CCCCCCCCCCCCC [tridecane] + N#Cc1ccccc1
Details	refractive index
[2], x2 = 0	1.4231
